Test system: BsPif1
Details: 50 nM enzyme; 67-mer ss oligonucleotide 25 μg/ml; 25 mM Tris-HCl pH 7.5, 50 mM NaCl, 2 mM MgCl2, 2 mM DTT; 37°C

Nc1ncnc2c1ncn2[C@@H]1O[C@H](COP(=O)(O)OP(=O)(O)OP(=O)(O)O)[C@@H](O)[C@H]1O [ATP]
Km: 0.2 µM
